Test results: patent publication US20120190659A1, “ANGIOGENESIS INHIBITORS” (Children's Medical Center Corporation, priority 2009, published 2012)

What was measured:
[1] = system: human umbilical vascular endothelial (HUVE) cells; experiment: HUVE cell growth (BrdU incorporation); type: cell-based; conditions: for growth of HUVE cells (BrdU incorporation): 0, 200, 1000 and 2000 nM (FIG. 3B); for BrdU incorporation: 1 μM (FIG. 3A); for doses that inhibited BrdU incorporation: FIGS. 3A & 3B; for HUVE cell growth induced by PDGF / HUVE cell growth induced by VEGF / HUVE cell growth induced by bFGF: concentration not given
Method: Incorporation of 5-bromo-2′-deoxyuridibe (BrdU) is a common method used to detect the DNA replication in actively proliferating cells. Inhibition of cell growth is inferred by the decrease of BrdU incorporation into the cells. […] The assay can be preformed in the presence or absence of growth factors such as VEGF, bFGF and PDGF. This assay was performed by a procedure described in Huang S, Chen C S, Ingber D E. “Control of cyclin D1, p 27(Kip1), and cell cycle progression in human capillary endothelial cells by cell shape and cytoskeletal tension.” Mol Biol Cell. 1998, 9:3179-93, the teachings of which are incorporated herein by reference.

[2] = system: human umbilical vascular endothelial (HUVE) cells; experiment: HUVE cell migration, transwell migration assay stimulated by VEGF; type: cell-based; conditions: for HUVE cell migration: 20 ng/ml VEGF
Method: Cell migration is an important aspect of angiogenesis. The effect of the test compounds on HUVE cell motility as stimulated by VEGF was examined using a transwell migration assay. This assay was performed by a similar procedure described in Shimizu A, Mammoto A, Italiano J E Jr, Pravda E, Dudley A C, Ingber D E, Klagsbrun M. “ABL2/ARG tyrosine kinase mediates SEMA3F-induced RhoA inactivation and cytoskeleton collapse in human glioma cells.” J. Biol. Chem. 2008, 283:27230-8, the teaching of which are incorporated by reference.
Briefly, transwell membranes (Coster, N.Y.) were coated with 0.5% gelatin, and cells were seeded (10^5 cells/100 μl) with 0.3% FBS/EBM2. The test compound was added to the both sides of the chamber. Cells were stained with Giemsa solution 16 hours later, and counted in 10 random fields (×400).

[3] = system: human umbilical vascular endothelial (HUVE) cells; experiment: Compound toxicity in HUVE cells (morphology after 24 h culture); type: cell-based; conditions: 50-2000 nM, 5% FBS/EGM2 media
Method: HUVE cells were cultured for 24 hours on standard tissue culture dishes in the presence of EJC 1-6 over a range of concentration (50-2000 nM). […] (FIGS. 1 and 2).

[4] = system: human umbilical vascular endothelial (HUVE) cells; experiment: Tube formation of HUVE cells on Matrigel; type: cell-based; conditions: for tube formation, quantitative analysis of mean tube length: cultured with VEGF in the basal EBM2 medium (FIG. 12)
Method: The effect of an agent on tube formation of HUVE cells was determined by a procedure described in Grant D S, Kinsella J L, Kibbey M C, LaFlamme S, Burbelo P D, Goldstein A L, Kleinman H K “Matrigel induces thymosin beta 4 gene in differentiating endothelial cells.” J Cell Sci. 1995, 108:3685-94, the teachings of which are incorporated by reference.
Briefly, HUVE cells (10^4 cells/150 μl of EBM-2) were plated on Matrigel™ (BD biosciences) and incubated for 12-16 hrs in the presence of VEGF (20 ng/ml) and the test compound. Tube formation was assessed in 10 random fields (4×).

[5] = system: developing vasculature of the newborn mouse retina; experiment: In vivo screening assay for inhibitors of retinal angiogenesis (intravitreous injection, newborn mice); conditions: for retinal vessel formation: 5 nmol single injection
Description: Blood vessel formation is critical for organ formation in the body. Compounds that inhibit angiogenesis within specific tissue types have therapeutic potential. For example, compounds that are effective in the retina may be used for the treatment of many types of blindness and other opthalmological diseases. Therefore, an in vivo method to screen for compounds that inhibit the growing vascular networks within the developing whole retina in eyes of living newborn mice was developed.
To screen in vivo in the eye for inhibitors of retinal angiogenesis, we adapted and modified the system described in Mammoto, A., Connor, K. M., Mammoto, T., Yung, C. W., Huh, D., Aderman, C. M., Mostoslaysky, G., Smith, L. E. H., & Ingber, D. E. A mechanosensitive transcriptional mechanism that controls angiogenesis. Nature 457, 1103-1108 (2009); and Shih, S. C., Ju, M., Liu, N. & Smith, L. E. Selective stimulation of VEGFR-1 prevents oxygen-induced retinal vascular degeneration in retinopathy of prematurity. J. Clin. Invest. 112, 50-7 (2003), the teachings of both are incorporated herein by reference. This assay was performed by a procedure described in Chen J, Connor K M, Aderman C M, Smith L E. “Erythropoietin deficiency decreases vascular stability in mice.” J. Clin. Invest. 2008, 118:526-33, the teachings of which are incorporated herein by reference.
After intraperitoneal injection of Avertin (125-240 mg/kg), the eyelid of mice was opened in a gentle manner by using tiny sterile blunt forceps. Test compound was injected into the vitreous of one eye of the mouse and a vehicle was injected into the other eye of the same mouse at either P6 or P14. Injections were performed by inserting an Exmire microsyringe (MS-NE05, ITO Corp. Fuji, Japan) into the vitreous 1 mm posterior to the corneal limbus. Pupils were dilated with 1% tropicamide. Insertion and the injection (0.3-0.5 μL solution) were directly viewed through an operating microscope, taking care not to injure the lens or the retina. The time points for intravitreous injection were set at P6 and P14 because these stages represent distinct developmental stages during vascular network formation. Blood vessels start spreading over the surface of retinal tissue at early times (P4-P6), then these distributed blood vessels start migrating into the deeper layer of the retina to make a three-dimensional vascular network at later times (P6-P14). Thus, using this approach, screening for inhibitors of initiation of angiogenesis at early times, and agents that induce regression of preexisting capillary vessels at the later time point can be identified.
After injection, the eyelid was treated with bacitracin eye antibiotic ointment, and eyelids naturally reformed after the procedure. Vascular network formation in the retina was assessed two days after injection using flat-mounted, fluorescein-conjugated isolectin-staining and immunohistochemical analysis. Quantification of vessel density was performed with Adobe photoshop.

[6] = 50 nM, cultured with VEGF in the basal EBM2 medium

CN(C)[C@@H]1CC[C@H]2[C@@H](CC[C@@H]3[C@@H]2CC[C@]2(C)C(c4ccc5ccncc5c4)=CC[C@@H]32)C1 [EJC-1]
growth of HUVE cells (BrdU incorporation) [1]: inhibit the growth
BrdU incorporation [1]: inhibit
doses that inhibited BrdU incorporation [1]: greater than 1 μM
HUVE cell migration ([2]; 200 nM test compound): exhibited inhibitory activity
HUVE cell migration ([2]; 1 μM (1000 nM) test compound): inhibit
HUVE cell migration ([2]; 2000 nM test compound): inhibit
morphological change of HUVE cells [3]: No morphological change
tube formation ([4]; 2 μM): inhibited

CN(C)[C@H]1CC[C@H]2[C@@H](CC[C@@H]3[C@@H]2CC[C@]2(C)C(c4ccc5ccncc5c4)=CC[C@@H]32)C1 [EJC-2]
growth of HUVE cells (BrdU incorporation) [1]: inhibit the growth
BrdU incorporation [1]: inhibit
doses that inhibited BrdU incorporation [1]: > 200 nM
HUVE cell migration ([2]; 200 nM test compound): exhibited inhibitory activity
HUVE cell migration ([2]; 1 μM (1000 nM) test compound): inhibit
morphological change of HUVE cells [3]: No morphological change
tube formation ([4]; 200 nM, cultured with VEGF in the basal EBM2 medium): inhibited
tube formation ([4]; 2 μM): inhibited
retinal angiogenesis, morphological analysis ([5]; 5-10 nmol in a single injection): appeared to inhibit retinal angiogenesis based on morphological analysis, but the sampling numbers were low and significant effects were not observed

CN(C)[C@H]1CC[C@H]2[C@@H](CC[C@@H]3[C@@H]2CC[C@]2(C)[C@@H](c4ccc5ccncc5c4)CC[C@@H]32)C1 [EJC-07]
HUVE cell migration ([2]; 200 nM test compound): active

CN1CCc2ccc([C@H]3CC[C@H]4[C@@H]5CC[C@H]6C[C@@H](N(C)C)CC[C@@H]6[C@H]5CC[C@]34C)cc2C1 [EJC-8]
HUVE cell migration ([2]; 50 nM test compound): inhibit

CN1CCc2ccc(C3=CC[C@H]4[C@@H]5CC[C@H]6C[C@@H](N(C)C)CC[C@@H]6[C@H]5CC[C@]34C)cc2C1 [EJC-9]
HUVE cell migration ([2]; 50 nM test compound): not active
HUVE cell migration ([2]; 200 nM test compound): not active
tube formation [4, 6]: significant inhibition
tube formation, quantitative analysis of mean tube length ([4]; 50 nM): inhibit

CN(C)[C@H]1CC[C@H]2[C@@H](CC[C@@H]3[C@@H]2CC[C@]2(C)C(c4ccc5cnccc5c4)=CC[C@@H]32)C1 [EJC-10]
IC50 ([1]; Homo sapiens, in the presence of PDGF, read-out: IC50, cell growth induced by PDGF): 0.0795 µM
IC50 ([1]; Homo sapiens, in the presence of VEGF, read-out: IC50, cell growth induced by VEGF): 0.0167 µM
IC50 ([1]; Homo sapiens, in the presence of bFGF, read-out: IC50, cell growth induced by bFGF): 0.0641 µM
IC50 ([1]; Homo sapiens, media absent an exogenous growth factor, read-out: IC50, growth of HUVE cells): 0.0576 µM
HUVE cell growth induced by PDGF [1]: inhibited
HUVE cell growth induced by VEGF [1]: inhibited
HUVE cell growth induced by bFGF [1]: inhibited
IC50 ([1]; in the presence of PDGF, read-out: IC50, cell growth induced by PDGF): 0.0795 µM
IC50 ([1]; in the presence of bFGF, read-out: IC50, cell growth induced by bFGF): 0.0641 µM
HUVE cell migration ([2]; 50 nM test compound): inhibit
IC50 ([2]; Homo sapiens, VEGF-stimulated, transwell, read-out: cell migration inhibition IC50): 0.0707 µM
tube formation [4, 6]: significant inhibition
tube formation, quantitative analysis of mean tube length ([4]; 50 nM): inhibit
retinal vessel formation ([5]; p6 mice): did not inhibit retinal vessel formation completely
retinal vessel formation ([5]; p14 mice): did not inhibit retinal vessel formation completely
vessel density in the retina compared to control ([5]; single dose of 500 pmol, p6 mice (FIG. 13)): decreases
retinal angiogenesis ([5]; single injection of 500 pmol, p6 mice): inhibited

CN(C)[C@H]1CC[C@H]2[C@@H](CC[C@@H]3[C@@H]2CC[C@]2(C)C(c4ccc5ncccc5c4)=CC[C@@H]32)C1 [EJC-11]
HUVE cell migration ([2]; 50 nM test compound): moderately active

CN(C)[C@H]1CC[C@H]2[C@@H](CC[C@@H]3[C@@H]2CC[C@]2(C)C(c4cccc5cnccc45)=CC[C@@H]32)C1 [EJC-12]
HUVE cell migration ([2]; 50 nM test compound): inhibit

CN(C)[C@H]1CC[C@H]2[C@@H](CC[C@@H]3[C@@H]2CC[C@]2(C)C(c4cccc5ncccc45)=CC[C@@H]32)C1 [EJC-13]
HUVE cell migration ([2]; 50 nM test compound): moderately active

CN(C)[C@H]1CC[C@H]2[C@@H](CC[C@@H]3[C@@H]2CC[C@]2(C)C(c4cccnc4)=CC[C@@H]32)C1 [EJC-14]
cell growth induced by VEGF ([1]; 50 nM): inhibited
HUVE cell growth induced by PDGF [1]: only at higher concentrations and not
HUVE cell growth induced by VEGF [1]: inhibited
HUVE cell growth induced by bFGF [1]: only at higher concentrations and not
HUVE cell migration ([2]; 50 nM test compound): inhibit
retinal vessel formation ([5]; p6 mice): did not inhibit
retinal vessel formation ([5]; p14 mice): did not inhibit

CN(C)[C@H]1CC[C@H]2[C@@H](CC[C@@H]3[C@@H]2CC[C@]2(C)C(c4ccncc4)=CC[C@@H]32)C1 [EJC-15]
HUVE cell migration ([2]; 50 nM test compound): inactive

C[C@]12CC[C@H]3[C@@H](CC[C@H]4C[C@@H](N5CCCC5)CC[C@@H]43)[C@@H]1CC=C2c1ccc2ccncc2c1 [EJC-21]
HUVE cell migration ([2]; 50 nM test compound): did not inhibit

C[C@]12CC[C@H]3[C@@H](CC[C@H]4C[C@@H](N5CCCC5)CC[C@@H]43)[C@@H]1CC=C2c1ccc2cnccc2c1 [EJC-22]
HUVE cell migration ([2]; 50 nM test compound): did not inhibit

C[C@]12CC[C@H]3[C@@H](CC[C@H]4C[C@@H](N5CCOCC5)CC[C@@H]43)[C@@H]1CC=C2c1ccc2ccncc2c1 [EJC-23]
HUVE cell migration ([2]; 50 nM test compound): did not inhibit

C[C@]12CC[C@H]3[C@@H](CC[C@H]4C[C@@H](N5CCOCC5)CC[C@@H]43)[C@@H]1CC=C2c1ccc2cnccc2c1 [EJC-24]
HUVE cell migration ([2]; 50 nM test compound): did not inhibit
